Experimental findings from patent US20090054454A1, “BENZOFURANYL- AND BENZOTHIENYL- PIPERAZINYL QUINOLINES AND METHODS OF THEIR USE” (priority 2007, published 2009) are described below.

Counter-ions that a name gives are not always drawn.

Chain of Human 5-HT Transporter (P31645 whole entry): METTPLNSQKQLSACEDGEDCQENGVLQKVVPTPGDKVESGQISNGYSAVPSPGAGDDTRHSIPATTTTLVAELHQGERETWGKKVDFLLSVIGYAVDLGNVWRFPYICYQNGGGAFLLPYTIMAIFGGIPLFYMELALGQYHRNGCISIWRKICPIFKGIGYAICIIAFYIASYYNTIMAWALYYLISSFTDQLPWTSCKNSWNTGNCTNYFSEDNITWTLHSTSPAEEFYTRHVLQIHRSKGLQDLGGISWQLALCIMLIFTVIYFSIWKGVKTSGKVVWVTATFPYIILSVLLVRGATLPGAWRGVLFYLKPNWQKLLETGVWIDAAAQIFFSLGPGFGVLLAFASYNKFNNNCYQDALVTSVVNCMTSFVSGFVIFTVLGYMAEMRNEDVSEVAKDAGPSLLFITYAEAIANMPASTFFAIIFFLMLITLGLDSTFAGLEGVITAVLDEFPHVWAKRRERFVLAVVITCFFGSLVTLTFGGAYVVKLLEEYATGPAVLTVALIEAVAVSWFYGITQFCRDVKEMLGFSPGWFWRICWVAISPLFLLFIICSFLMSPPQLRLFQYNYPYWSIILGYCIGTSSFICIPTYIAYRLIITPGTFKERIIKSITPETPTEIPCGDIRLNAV

Tested on in the first data set: not given
Assay: not given
Settings: not given
As usually defined, the melting point is the temperature of the solid-liquid transition. Regarding `COc1cc(N2CCN(CCc3coc4ccc(F)cc34)CC2)c2ncccc2c1` (as salt: HCl) [Compound 16, 8-{4-[2-(5-fluoro-1-benzofuran-3-yl)ethyl]-1-piperazinyl}-6-methoxy-quinoline], the melting point is 80 °C.

The next data set concerns the target Human 5-HT Transporter (Homo sapiens, UniProt P31645). The data set can be described thus: Inhibition of 3H-5-HT Uptake by Cells Possessing the Human 5-HT Transporter (HC 5HT Transporter), Jar cells. Particulars: HC-5HTC Transporter Ki (nM), Jar cells treated with staurosporine.
Usually Ki stands for the equilibrium dissociation constant of an inhibitor or competing ligand from its target. A lower Ki goes with tighter binding. `Clc1cc(N2CCN(CCc3coc4ccccc34)CC2)c2ncccc2c1` [Compound 2, 8-{4-[2-(1-benzofuran-3-yl)ethyl]-1-piperazinyl}-6-chloroquinoline] yielded an inhibitory constant (Ki) of 1710 nM.

In turn, `Cc1cc(N2CCN(CCc3coc4ccccc34)CC2)c2ncccc2c1` [Compound 3, 8-{4-[2-(1-benzofuran-3-yl)ethyl]-1-piperazinyl}-6-methylquinoline] displayed a Ki of 75.6 nM. Against the preceding compound, the Ki is about 23-fold lower.

`COc1cc(N2CCN(CCc3coc4ccccc34)CC2)c2ncccc2c1` [Compound 4, 8-{4-[2-(1-benzofuran-3-yl)ethyl]-1-piperazinyl}-6-methoxyquinoline] showed a Ki of 612 nM.

As to `Clc1ccc2c(CCN3CCN(c4cccc5cccnc45)CC3)coc2c1` [Compound 5, 8-{4-[2-(6-chloro-1-benzofuran-3-yl)ethyl]-1-piperazinyl}-quinoline], the Ki was determined as 1.6 nM.

On to `Fc1cc(N2CCN(CCc3coc4cc(Cl)ccc34)CC2)c2ncccc2c1` [Compound 6, 8-{4-[2-(6-chloro-1-benzofuran-3-yl)ethyl]-1-piperazinyl}-6-fluoro-quinoline], for which the Ki was determined as 1080 nM. This Ki lies about 680-fold higher than the previous one.

Compound `Cc1cc(N2CCN(CCc3coc4cc(Cl)ccc34)CC2)c2ncccc2c1` [Compound 8, 8-{4-[2-(6-chloro-1-benzofuran-3-yl)ethyl]-1-piperazinyl}-6-methyl-quinoline] gave a Ki of 1780 nM.

With `COc1ccc2c(CCN3CCN(c4cccc5cccnc45)CC3)coc2c1` [Compound 9, 8-{4-[2-(6-methoxy-1-benzofuran-3-yl)ethyl]-1-piperazinyl}-quinoline], the affinity, expressed as Ki, was 71.3 nM.

For `COc1ccc2c(CCN3CCN(c4cc(C)cc5cccnc45)CC3)coc2c1` [Compound 10, 8-{4-[2-(6-methoxy-1-benzofuran-3-yl)ethyl]-1-piperazinyl}-6-methyl-quinoline], the affinity corresponds to a Ki of 206 nM. This Ki is about 2.9-fold higher than that of the compound before.

Consider `COc1ccc2c(CCN3CCN(c4cc(Cl)cc5cccnc45)CC3)coc2c1` [Compound 11, 8-{4-[2-(6-methoxy-1-benzofuran-3-yl)ethyl]-1-piperazinyl}-6-chloro-quinoline], for which the Ki worked out at 540 nM. Against the preceding compound, the Ki is about 2.6-fold higher.

Regarding `Clc1ccc2occ(CCN3CCN(c4cccc5cccnc45)CC3)c2c1` [Compound 12, 8-{4-[2-(5-chloro-1-benzofuran-3-yl)ethyl]-1-piperazinyl}-quinoline], affinity was put at a Ki of 42.2 nM.

`Clc1cc(N2CCN(CCc3coc4ccc(Cl)cc34)CC2)c2ncccc2c1` [Compound 13, 8-{4-[2-(5-chloro-1-benzofuran-3-yl)ethyl]-1-piperazinyl}-6-chloro-quinoline] registered a Ki of 270 nM.

With `Cc1cc(N2CCN(CCc3coc4ccc(Cl)cc34)CC2)c2ncccc2c1` [Compound 14, 8-{4-[2-(5-chloro-1-benzofuran-3-yl)ethyl]-1-piperazinyl}-6-methyl-quinoline], the affinity, expressed as Ki, was 9.82 nM.

On to `Fc1ccc2occ(CCN3CCN(c4cccc5cccnc45)CC3)c2c1` [Compound 15, 8-{4-[2-(5-fluoro-1-benzofuran-3-yl)ethyl]-1-piperazinyl}-quinoline], for which the Ki worked out at 67.2 nM.

Take `COc1cc(N2CCN(CCc3coc4ccc(F)cc34)CC2)c2ncccc2c1` [Compound 16, 8-{4-[2-(5-fluoro-1-benzofuran-3-yl)ethyl]-1-piperazinyl}-6-methoxy-quinoline]: the Ki came to 180 nM.

On to `Fc1cc(N2CCN(CCc3coc4ccc(F)cc34)CC2)c2ncccc2c1` [Compound 17, 8-{4-[2-(5-fluoro-1-benzofuran-3-yl)ethyl]-1-piperazinyl}-6-fluoro-quinoline], for which the affinity corresponds to a Ki of 50.9 nM.

`COc1cccc2c(CCN3CCN(c4cccc5cccnc45)CC3)coc12` [Compound 18, 8-{4-[2-(7-methoxy-1-benzofuran-3-yl)ethyl]-1-piperazinyl}-quinoline]: the Ki amounted to 9.46 nM. This Ki is about 5.4-fold lower than that of the compound before.

In the case of `COc1cccc2c(CCN3CCN(c4cc(Cl)cc5cccnc45)CC3)coc12` [Compound 20, 8-{4-[2-(7-methoxy-1-benzofuran-3-yl)ethyl]-1-piperazinyl}-6-chloro-quinoline], the affinity, expressed as Ki, was 47.7 nM.

Compound `COc1ccc2occ(CCN3CCN(c4cc(C)cc5cccnc45)CC3)c2c1` [Compound 23, 8-{4-[2-(5-methoxy-1-benzofuran-3-yl)ethyl]-1-piperazinyl}-6-methyl-quinoline] returned a Ki of 182 nM.

In turn, `COc1cc(N2CCN(CCc3coc4ccc(OC)cc34)CC2)c2ncccc2c1` [Compound 25, 8-{4-[2-(5-methoxy-1-benzofuran-3-yl)ethyl]-1-piperazinyl}-6-methoxy-quinoline] registered a Ki of 210 nM.

For the compound `COc1ccc2occ(CCN3CCN(c4cc(F)cc5cccnc45)CC3)c2c1` [Compound 26, 8-{4-[2-(5-methoxy-1-benzofuran-3-yl)ethyl]-1-piperazinyl}-6-fluoro-quinoline], the Ki came to 51 nM.

For `CC(CN1CCN(c2cccc3cccnc23)CC1)c1coc2ccccc12` (stereo not shown) [Compound 27, 8-{4-[2-(1-benzofuran-3-yl)propyl]-1-piperazinyl}quinoline], the Ki worked out at 51.9 nM.

As for `CC(CN1CCN(c2cc(Cl)cc3cccnc23)CC1)c1coc2ccccc12` (stereo not shown) [Compound 28, 8-{4-[2-(1-benzofuran-3-yl)propyl]-1-piperazinyl}-6-chloro-quinoline], the Ki is 125 nM.

In turn, `CC(CN1CCN(c2cc(F)cc3cccnc23)CC1)c1coc2ccccc12` (stereo not shown) [Compound 29, 8-{4-[2-(1-benzofuran-3-yl)propyl]-1-piperazinyl}-6-fluoro-quinoline] came in with a Ki of 115 nM.

As to `Cc1cc(N2CCN(CC(C)c3coc4ccccc34)CC2)c2ncccc2c1` (stereo not shown) [Compound 30, 8-{4-[2-(1-benzofuran-3-yl)propyl]-1-piperazinyl}-6-methyl-quinoline], the Ki was 347 nM.

Take `COc1cccc2c(C(C)CN3CCN(c4cccc5cccnc45)CC3)coc12` (stereo not shown) [Compound 31, 8-{4-[2-(7-methoxy-1-benzofuran-3-yl)propyl]-1-piperazinyl}quinoline]: the Ki was 9.53 nM.

`COc1cccc2c(C(C)CN3CCN(c4cc(C)cc5cccnc45)CC3)coc12` (stereo not shown) [Compound 32, 8-{4-[2-(7-methoxy-1-benzofuran-3-yl)propyl]-1-piperazinyl}-6-methyl-quinoline] returned a Ki of 58.2 nM. Against the preceding compound, the Ki is about 6.1-fold higher.

`COc1cccc2c(C(C)CN3CCN(c4cc(Cl)cc5cccnc45)CC3)coc12` (stereo not shown) [Compound 33, 8-{4-[2-(7-methoxy-1-benzofuran-3-yl)propyl]-1-piperazinyl}-6-chloro-quinoline] had a Ki of 183 nM.

With `COc1cccc2c(C(C)CN3CCN(c4cc(C)cc5cccnc45)CC3)coc12` (stereo not shown) [Compound 34, 8-{4-[2-(7-methoxy-1-benzofuran-3-yl)propyl]-1-piperazinyl}-6-methyl-quinoline], the Ki came to 881 nM.

`COc1cc(N2CCN(C(C)Cc3coc4c(OC)cccc34)CC2)c2ncccc2c1` (stereo not shown) [Compound 36, 6-methoxy-8-{4-[2-(7-methoxy-1-benzofuran-3-yl)-1-methylethyl)piperazin-1-yl]quinoline] returned a Ki of 31 nM.

As for `COc1ccc2occ(CC(C)N3CCN(c4cc(Cl)cc5cccnc45)CC3)c2c1` (stereo not shown) [Compound 39, 6-chloro-8-{4-[2-(5-methoxy-1-benzofuran-3-yl)-1-methylethyl)piperazin-1-yl]quinoline], the affinity, expressed as Ki, was 40.1 nM. This Ki and that of the compound before are within 1.5-fold of each other.

Regarding `COc1ccc2occ(CC(C)N3CCN(c4cc(C)cc5cccnc45)CC3)c2c1` (stereo not shown) [Compound 40, 6-methyl-8-{4-[2-(5-methoxy-1-benzofuran-3-yl)-1-methylethyl)piperazin-1-yl]quinoline], affinity was put at a Ki of 549 nM.

Regarding `COc1cc(N2CCN([C@H]3CC[C@@H](c4csc5ccc(F)cc54)CC3)CC2)c2ncccc2c1` [Compound 49, 6-methoxy-8-{4-[4-cis(5-fluoro-1-benzothien-3-yl)cyclohexyl]piperazin-1-yl}quinoline], the Ki amounted to 659 nM.

Consider `COc1cc(N2CCN([C@H]3CC[C@H](c4csc5ccc(F)cc54)CC3)CC2)c2ncccc2c1` [Compound 50, 6-methoxy-8-{4-[4-trans(5-fluoro-1-benzothien-3-yl)cyclohexyl]piperazin-1-yl}quinoline], for which the Ki was found to be 65.3 nM.

`Fc1cc(N2CCN([C@H]3CC[C@@H](c4coc5ccccc54)CC3)CC2)c2ncccc2c1` [Compound 55, 8-{4-[4-cis(1-benzofuran-3-yl)cyclohexyl]-1-piperazinyl}-6-fluoroquinoline] displayed a Ki of 472 nM.

`COc1cccc2c1occ2[C@H]1CC[C@H](N2CCN(c3ccc(F)c4cccnc34)CC2)CC1` [Compound 58, 5-fluoro-8-{4-[4-trans(7-methoxy-1-benzofuran-3-yl)cyclohexyl]-1-piperazinyl}quinoline] showed a Ki of 272 nM.

Consider `COc1cccc2c1occ2[C@H]1CC[C@@H](N2CCN(c3ccc(Cl)c4cccnc34)CC2)CC1` [Compound 63, 5-chloro-8-{4-[4-cis(7-methoxy-1-benzofuran-3-yl)cyclohexyl]piperazin-1-yl}quinoline], for which the affinity corresponds to a Ki of 124 nM.

As for `COc1cccc2c1occ2[C@H]1CC[C@H](N2CCN(c3ccc(Cl)c4cccnc34)CC2)CC1` [Compound 64, 5-chloro-8-{4-[4-trans(7-methoxy-1-benzofuran-3-yl)cyclohexyl]piperazin-1-yl}quinoline], the Ki was 176 nM.

In the case of `COc1ccc2occ([C@H]3CC[C@@H](N4CCN(c5ccc(Cl)c6cccnc56)CC4)CC3)c2c1` [Compound 65, 5-chloro-8-{4-[4-cis(5-methoxy-1-benzofuran-3-yl)cyclohexyl]piperazin-1-yl}quinoline], the Ki worked out at 53 nM. This Ki lies about 3.3-fold lower than the previous one.

Take `COc1ccc2occ([C@H]3CC[C@H](N4CCN(c5ccc(Cl)c6cccnc56)CC4)CC3)c2c1` [Compound 66, 5-chloro-8-{4-[4-trans(5-methoxy-1-benzofuran-3-yl)cyclohexyl]piperazin-1-yl}quinoline]: the Ki was 1200 nM.
